Consider two compounds from patent publication EP4650362A1, “NEUROPROTECTIVE PSD-95 POLYPEPTIDE INHIBITOR AND USE THEREOF” (Beijing Tuo Jie Biopharmaceutical Co. Ltd., priority 2023, dated 2024).

Data set [1] is described as follows: pharmacokinetic study in rats, single intravenous bolus injection. The data set is classed as in vivo, SD rats. The settings on record: rats, intravenous bolus injection over 10 min, 3 nmol/g, n = 3. The procedure:
With male SD rats as test animals, the pharmacokinetic behavior of polypeptide compounds administered via single intravenous bolus injection in rats (plasma) was studied.
Male SD rats weighing 170 to 200 grams and aged 4-6 weeks were purchased from Beijing Vital River Laboratory Animal Technology Co., Ltd. The polypeptide compounds were dissolved in 1× PBS, and the polypeptide compound solutions were then administered via intravenous bolus injection over 10 min at a dose of 3 nmol/g, with three animals per group. At each of the time points of 2 min, 8 min, 15 min, 30 min, 45 min, 60 min, and 120 min after the end of bolus injection, 0.2 mL of blood was collected and transferred to an EDTA-K2 anticoagulation centrifuge tube. The whole blood sample was centrifuged at 4 °C at 4000 g for 5 min, and a plasma sample was obtained by separation and cryopreserved at -80 °C.
The pharmacokinetic parameters of polypeptide compound 22, administered via intravenous bolus injection, in rats were determined using a similar method, with the difference being that an enzyme inhibitor was added immediately after blood collection.
The plasma concentrations of the test compounds were determined using the method in Test Example 3.4.3. Plasma concentration-time curves were plotted, and the pharmacokinetic parameters were calculated using PKSolver software. The experimental results are shown in Table 5-1, Table 5-2, and FIG. 3.

Data set [2] deals with T1, human PSD95-PDZ2 (Homo sapiens, UniProt P78352).
T1 construct: PDZ2 (155-249, the Flag-His-Avitag-TEVsite tag is italicized); made in house; host or cells: E. coli BL21-DE3 (PET vector)
As to the kind of experiment: binding ELISA with Biotin-PDZ2. The settings on record: for EC50: plate coated with 2 µM test compound, Biotin-PDZ2 titrated, read-out: EC50 (PDZ2). The source says: (§1) The three PDZ domains in the PSD95 protein are structurally similar. Binding to the PDZ1 and PDZ2 domains can effectively block PSD95-mediated neuroexcitotoxicity. However, the biological function of binding to the PDZ3 domain is unclear. Therefore, to avoid potential safety concerns, this test example assessed the selectivity of polypeptide compounds for the PDZ2 and PDZ3 domains, aiming to identify polypeptide compounds that specifically bind to the PDZ2 domain. Site-specifically biotinylated Biotin-PDZ2 and Biotin-PDZ3 proteins were used for binding ELISA assays. […] After the blocking was complete, the blocking solution was discarded, and the plate was washed three times with PBST buffer. […] After the incubation was complete, the reaction solutions in the microplate were discarded, and the plate was washed three times with PBST. 100 µL of HRP-SA secondary antibody (diluted at 1:2000) was added to each well, and the plate was incubated at 37 °C for 1 h. After the plate was washed three times with PBST, 100 µL of TMB chromogenic substrate was added. […] The absorbance at 450 nm was measured using a SpectraMax M5 microplate reader, and the binding EC50 values of the test compounds to Biotin-PDZ2 or Biotin-PDZ3 were calculated using GraphPad Prism 9. […] The abilities of polypeptide compounds to bind to human PSD95-PDZ2 and human PSD95-PDZ3
(ELISA stands for enzyme-linked immunosorbent assay.)
Target sequence in this assay (P78352 155-249): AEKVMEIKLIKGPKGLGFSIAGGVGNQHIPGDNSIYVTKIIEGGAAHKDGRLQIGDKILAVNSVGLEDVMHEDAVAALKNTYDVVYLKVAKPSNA

For data set [3], the target named is T1, human PSD95-PDZ2. As to the kind of experiment: competitive ELISA, affinity for human PSD95-PDZ2. The settings on record: for IC50: competitive ELISA against 0.3 µM Biotin-NA-1, error of this test within three times, read-out: IC50. In kind it is binding. The text has this: The objective of this test example was to determine the affinities of polypeptide compounds for human PSD95-PDZ2 using competitive ELISAs.
The amino acid sequence of PDZ2 protein was designed using human PSD95 (Uniprot Entry: P78352) as a template for PDZ: PDZ2 (155-249, the Flag-His-Avitag-TEVsite tag is italicized and was subsequently used for purification and biotinylation): […]
[…] (SEQ ID NO. 62). The PDZ2 gene was constructed onto a PET expression vector, and induced expression was performed using BL21-DE3 E. coli cells under conditions of 37 °C and 1 mM IPTG 4 h. Then centrifugation was performed at 10,000 g at 4 °C for 10 min, and the cell pellets were collected, resuspended in 1× PBS solution, and then lysed using a homogenizer. The lysate was centrifuged at high speed, and the supernatant was collected and filtered through a 0.45 µm membrane. A Ni-Sepharose affinity column was equilibrated with 5 column volumes of a 20 mM phosphate buffer (pH 8.0). The sample was centrifuged at high speed to remove impurities and loaded onto the column for binding. The column was rinsed with the 20 mM phosphate buffer until the A280 reading dropped to the baseline. Gradient elution was then performed with the 20 mM phosphate buffer and 0-500 mM imidazole. A protein was collected, and whether it was the target protein was determined. The purified sample described above was buffer-exchanged into 1× PBS solution, and the resulting solution was concentrated to a volume of 2 mL and further purified using a Superdex200 gel chromatography column (GE) equilibrated with 1× PBS. The target peak was collected and aliquoted for later use.
PSD95-PDZ2 (the tag was removed by TEV enzyme) was diluted with 1× PBS buffer to 1 µg/mL, added to a 96-well microplate (Corning, 9018, 25/box 96-well clear flat bottom plate) at 100 µL/well, and left to stand overnight at 4 °C for 16-20 h. After the liquid was discarded, the plate was washed three times with PBST (pH 7.4, 0.05% Tween-20) buffer, and a 4% BSA blocking solution diluted with PBST buffer was then added (300 µL/well). The plate was blocked by incubation in an incubator at 37 °C for 1 h. After the blocking was complete, the blocking solution was discarded, and the plate was washed three times with PBST buffer. Biotin-NA-1, at a constant concentration of 0.3 µM, and the test compounds, having a starting concentration of 100 µM and serially diluted ten-fold with PBS buffer to seven concentrations (100, 10, 1, 0.1, 0.01, 0.001, 0.0001, and 0 µM), were then added, and the plate was incubated in an incubator at 37 °C for 1 h. After the incubation was complete, the reaction solutions in the microplate were discarded, and the plate was washed three times with PBST. 100 µL of HRP-SA secondary antibody (diluted at 1:2000) was added to each well, and the plate was incubated at 37 °C for 1 h. After the plate was washed three times with PBST, 100 µL of TMB chromogenic substrate was added. The plate was incubated at room temperature for 1-3 min, and 100 µL of 1 M sulfuric acid was added to stop the reaction.
The absorbance at 450 nm was measured using a SpectraMax M5 microplate reader, and non-linear fitting was performed using GraphPad Prism 9 to calculate the binding IC50 values of the test compounds to PSD95-PDZ2 protein.

Data set [4] has as its target T2, human PSD95-PDZ3 (Homo sapiens, UniProt P78352).
T2 construct: PDZ3 (309-401, Flag-His-Avitag-TEVsite tag); made in house
As to the kind of experiment: binding ELISA with Biotin-PDZ3. The conditions noted are these: plate coated with 2 µM test compound, Biotin-PDZ3 titrated; read-out: EC50 (PDZ3).
Description: as §1, with “domain. The expression and purification of PSD95-PDZ3 protein were carried out with reference to the steps in 3.1.2. The amino acid sequence of PDZ3 protein: […]” for “domain.”, “μL” for “µL”

Where two headings read alike, the source gives them in different places. Non-standard residues stand in square brackets, D forms with d. Residues, ends and D or L forms follow the SMILES beside them. Chg = N[C@H](C(=O)O)C1CCCCC1; Tle = CC(C)(C)[C@H](N)C(=O)O; Dab = NCC[C@H](N)C(=O)O; Aib = CC(C)(N)C(=O)O A value given as a limit tells only on which side of the number the result lay.

T2 sequence (P78352 309-401): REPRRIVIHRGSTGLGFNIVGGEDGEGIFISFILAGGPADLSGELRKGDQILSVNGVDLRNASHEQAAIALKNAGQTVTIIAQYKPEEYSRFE

Broadly, the AUC(0-inf) is the area under the concentration-time curve extrapolated to infinity. As a reminder, the MRT is the average time that molecules of a dose stay in the body. In general, AUC(0-t) refers to exposure summed from dosing to a finite time, without extrapolation to infinity. In general, Cmax refers to the peak of the concentration-time curve. What is called EC50 is the concentration at which the effect is half-maximal. The term IC50 denotes the concentration that gives 50% inhibition. On to `CC(C)[C@H](NC(=O)[C@H](CC(=O)O)NC(=O)[C@H](CO)NC(=O)[C@@H](NC(=O)[C@@H](NC(=O)[C@@H](NC(=O)[C@H](CCN)NC(=O)C(C)(C)NC(=O)CNC(=O)[C@@H](CCCNC(=N)N)NC(=O)[C@@H](CCCNC(=N)N)NC(=O)[C@@H](CCCNC(=N)N)NC(=O)[C@@H](CCC(N)=O)NC(=O)[C@@H](CCCNC(=N)N)NC(=O)[C@@H](CCCNC(=N)N)NC(=O)[C@@H](CCCCN)NC(=O)[C@@H](CCCCN)NC(=O)[C@@H](CCCNC(=N)N)NC(=O)CNC(=O)[C@H](N)Cc1ccc(O)cc1)[C@@H](C)O)C1CCCCC1)C(C)(C)C)C(=O)O` [Polypeptide compound 19, y-G-r-k-k-r-r-q-r-r-r-G-Aib-Dab-T-Chg-Tle-S-D-V] (H-[dY]G[dR][dK][dK][dR][dR][dQ][dR][dR][dR]G[Aib][Dab]T[Chg][Tle]SDV-OH), for which, in data set [1] (male, SD, rat, plasma), the AUC(0-inf) turned out to be 11800 ng·h/mL. The compound also had an MRT in data set [1] (male, SD, rat, plasma) of 57.6 min. Besides, the AUC(0-t) in data set [1] (male, SD, rat, plasma, read-out: AUC(0-t)) was 10200 ng·h/mL. Moreover, the Cmax in data set [1] (male, SD, rat, plasma, read-out: Cmax) was determined as 19600 ng/mL. For the same compound, the half-life in data set [1] (male, SD, rat, plasma, read-out: T1/2 (converted)) was 43.8 min. Also, in data set [1], the AUClast/dose turned out to be 1345. The values for the EC50 in data set [2] and in data set [4] were 0.029 µM and over 1000 µM, respectively. For the same compound, the IC50 in data set [3] worked out at 0.612 µM.

Regarding `CC(C)[C@H](NC(=O)[C@H](CC(=O)O)NC(=O)[C@H](CO)NC(=O)[C@@H](NC(=O)[C@@H](NC(=O)[C@@H](NC(=O)CNC(=O)[C@@H](CCCNC(=N)N)NC(=O)[C@@H](CCCNC(=N)N)NC(=O)[C@@H](CCCNC(=N)N)NC(=O)[C@@H](CCC(N)=O)NC(=O)[C@@H](CCCNC(=N)N)NC(=O)[C@@H](CCCNC(=N)N)NC(=O)[C@@H](CCCCN)NC(=O)[C@@H](CCCCN)NC(=O)[C@@H](CCCNC(=N)N)NC(=O)CNC(=O)[C@H](N)Cc1ccc(O)cc1)[C@@H](C)O)C1CCCCC1)C(C)(C)C)C(=O)O` [Polypeptide compound 21, y-G-r-k-k-r-r-q-r-r-r-G-T-Chg-Tle-S-D-V] (H-[dY]G[dR][dK][dK][dR][dR][dQ][dR][dR][dR]GT[Chg][Tle]SDV-OH), in data set [1], the “AUC(0-t)” value is 5660 ng·h/mL, the “AUC(inf)” value was determined as 6396 ng·h/mL, the AUClast/dose turned out to be 745 and the highest concentration (Cmax) was 15643 ng/mL. Besides, in data set [1], the MRTO-inf worked out at 48 min and the T1/2 was 43.2 min. Moreover, in data set [2] (PDZ2 versus PDZ3, conclusion in words), the “selectivity for the PSD95-PDZ2 domain” value is “comparable to that of the positive drugs NA-1 and NoNO42”. In addition, the EC50 in data set [2] was determined as 0.018 µM. Besides, the “Specificity for PDZ2 (PDZ3/PDZ2)” value in data set [2] (ratio PDZ3/PDZ2) was over 10000. Further, in data set [3], the IC50 turned out to be 0.8 µM. Besides, the rIC50 in data set [3] (ratio of the affinity of the polypeptide compound to the affinity of NA-1) was determined as 0.88. For the same compound, the EC50 in data set [4] is over 1000 µM.
